In ChEMBL document CHEMBL3885861, “Open TG-GATES”:

Organism: Rattus norvegicus
Assay: Open TG-GATES - Regimen: Daily Repeat
Format: toxicity, organism-based, Sprague-Dawley
Parameters: regimen Daily Repeat, gender Male, age 6 weeks
Details: in vivo, po, 300 mg/kg, route gavage, dose level High; for APTT / Bas / Eos / Fbg / Hb / Ht / Lym / MCH / MCHC / MCV / Mono / Neu / PT / Plat / RBC / Ret / WBC: tissue Blood; for KIDNEY_L / KIDNEY_R / KIDNEY_TOTAL: tissue Kidney; for LIVER: tissue Liver; for A/G / ALP / ALT / AST / BUN / CRE / Ca / Cl / DBIL / GLC / IP / K / LDH / Na / PL / RALB / TBIL / TC / TG / TP / gamma-GTP: tissue Plasma

With `CC(=O)Nc1ccc2c(c1)Cc1ccccc1-2` [2-ACETYLAMINOFLUORENE] the TERMINAL_BW (72 h, time 3 day) was 193.8 g, the APTT (72 h, time 3 day) was 20.9 s and the Bas (72 h, time 3 day) was 0.8%. The Eos (72 h, time 3 day) was 0.8%, the Fbg (72 h, time 3 day) was 229.4 mg/dL and the Hb (72 h, time 3 day) was 15.2 g/dL. For the same compound, the Ht (72 h, time 3 day) was 43.9%, the Lym (72 h, time 3 day) was 71.4% and the MCH (72 h, time 3 day) was 21.2 pg. For the same compound, the MCHC (72 h, time 3 day) was 34.6%, the MCV (72 h, time 3 day) was 61.2 fL and the Mono (72 h, time 3 day) was 3%. The Neu (72 h, time 3 day) was 23.2%, the PT (72 h, time 3 day) was 12.8 s and the Plat (72 h, time 3 day) was 140.3 x10_4/uL. It also gave an RBC (72 h, time 3 day) of 716.4 x10_4/ul, a Ret (72 h, time 3 day) of 2.9% and a WBC (72 h, time 3 day) of 127.6 x10_2/uL. It also gave a KIDNEY_L (72 h, time 3 day) of 0.9 g, a KIDNEY_R (72 h, time 3 day) of 0.9 g and a KIDNEY_TOTAL (72 h, time 3 day) of 1.9 g. For the same compound, the LIVER (72 h, time 3 day) was 9.4 g, the A/G (72 h, time 3 day) was 1.5 and the ALP (72 h, time 3 day) was 595 IU/L. For the same compound, the ALT (72 h, time 3 day) was 24 IU/L, the AST (72 h, time 3 day) was 72.2 IU/L and the BUN (72 h, time 3 day) was 10.2 mg/dL. The CRE (72 h, time 3 day) was 0.4 mg/dL, the Ca (72 h, time 3 day) was 9.9 mg/dL and the Cl (72 h, time 3 day) was 105.8 meq/L. It also gave a DBIL (72 h, time 3 day) of 0.096 mg/dL, a GLC (72 h, time 3 day) of 193.6 mg/dL and an IP (72 h, time 3 day) of 7.4 mg/dL. It also gave a K (72 h, time 3 day) of 4.3 meq/L, an LDH (72 h, time 3 day) of 281.2 IU/L and a Na (72 h, time 3 day) of 142.4 meq/L. The PL (72 h, time 3 day) was 93.2 mg/dL, the RALB (72 h, time 3 day) was 2.9 g/dL and the TBIL (72 h, time 3 day) was 0.2 mg/dL. It also gave a TC (72 h, time 3 day) of 49.2 mg/dL, a TG (72 h, time 3 day) of 52.2 mg/dL and a TP (72 h, time 3 day) of 5 g/dL. It also gave a gamma-GTP (72 h, time 3 day) of 1.2 IU/L, a TERMINAL_BW ([…], time 7 day) of 219.8 g and a TERMINAL_BW ([…], time 14 day) of 246.4 g. It also gave a TERMINAL_BW ([…], time 28 day) of 274 g, an APTT ([…], time 7 day) of 19.8 s and a Bas ([…], time 7 day) of 0.6%. The Eos ([…], time 7 day) was 1%, the Fbg ([…], time 7 day) was 207 mg/dL and the Hb ([…], time 7 day) was 12.9 g/dL. For the same compound, the Ht ([…], time 7 day) was 36%, the Lym ([…], time 7 day) was 68.2% and the MCH ([…], time 7 day) was 21.4 pg. For the same compound, the MCHC ([…], time 7 day) was 35.9%, the MCV ([…], time 7 day) was 59.5 fL and the Mono ([…], time 7 day) was 3%. It also gave a Neu ([…], time 7 day) of 26.4%, a PT ([…], time 7 day) of 12.4 s and a Plat ([…], time 7 day) of 184.8 x10_4/uL. The RBC ([…], time 7 day) was 605.6 x10_4/ul, the Ret ([…], time 7 day) was 4.7% and the WBC ([…], time 7 day) was 186.5 x10_2/uL. The APTT ([…], time 14 day) was 21.6 s, the Bas ([…], time 14 day) was 0.6% and the Eos ([…], time 14 day) was 0%. It also gave a Fbg ([…], time 14 day) of 169.6 mg/dL, a Hb ([…], time 14 day) of 13.2 g/dL and a Ht ([…], time 14 day) of 40.3%. It also gave a Lym ([…], time 14 day) of 73.2%, an MCH ([…], time 14 day) of 22.8 pg and an MCHC ([…], time 14 day) of 32.7%. It also gave an MCV ([…], time 14 day) of 70 fL, a Mono ([…], time 14 day) of 2.6% and a Neu ([…], time 14 day) of 23%. It also gave a PT ([…], time 14 day) of 13.5 s, a Plat ([…], time 14 day) of 163 x10_4/uL and an RBC ([…], time 14 day) of 576.8 x10_4/ul. The Ret ([…], time 14 day) was 14.7%, the WBC ([…], time 14 day) was 142.6 x10_2/uL and the APTT ([…], time 28 day) was 23 s. It also gave a Bas ([…], time 28 day) of 0%, an Eos ([…], time 28 day) of 0.4% and a Fbg ([…], time 28 day) of 142 mg/dL. It also gave a Hb ([…], time 28 day) of 13.2 g/dL, a Ht ([…], time 28 day) of 39.8% and a Lym ([…], time 28 day) of 67.6%. For the same compound, the MCH ([…], time 28 day) was 20.9 pg, the MCHC ([…], time 28 day) was 33.1% and the MCV ([…], time 28 day) was 63.1 fL. It also gave a Mono ([…], time 28 day) of 2.6%, a Neu ([…], time 28 day) of 27.8% and a PT ([…], time 28 day) of 13.3 s. It also gave a Plat ([…], time 28 day) of 134.9 x10_4/uL, an RBC ([…], time 28 day) of 632.8 x10_4/ul and a Ret ([…], time 28 day) of 10.2%. The WBC ([…], time 28 day) was 131.2 x10_2/uL, the KIDNEY_L ([…], time 7 day) was 1 g and the KIDNEY_R ([…], time 7 day) was 1 g. For the same compound, the KIDNEY_TOTAL ([…], time 7 day) was 2 g, the KIDNEY_L ([…], time 14 day) was 1.1 g and the KIDNEY_R ([…], time 14 day) was 1 g. For the same compound, the KIDNEY_TOTAL ([…], time 14 day) was 2.1 g, the KIDNEY_L ([…], time 28 day) was 1.2 g and the KIDNEY_R ([…], time 28 day) was 1.2 g. For the same compound, the KIDNEY_TOTAL ([…], time 28 day) was 2.3 g, the LIVER ([…], time 7 day) was 11.5 g and the LIVER ([…], time 14 day) was 13.3 g. For the same compound, the LIVER ([…], time 28 day) was 13.2 g, the A/G ([…], time 7 day) was 1.5 and the ALP ([…], time 7 day) was 616.8 IU/L. For the same compound, the ALT ([…], time 7 day) was 32 IU/L, the AST ([…], time 7 day) was 75.8 IU/L and the BUN ([…], time 7 day) was 13 mg/dL. The CRE ([…], time 7 day) was 0.5 mg/dL, the Ca ([…], time 7 day) was 10.4 mg/dL and the Cl ([…], time 7 day) was 102.8 meq/L. For the same compound, the DBIL ([…], time 7 day) was 0.1 mg/dL, the GLC ([…], time 7 day) was 165.8 mg/dL and the IP ([…], time 7 day) was 6.5 mg/dL. For the same compound, the K ([…], time 7 day) was 4 meq/L, the LDH ([…], time 7 day) was 224.2 IU/L and the Na ([…], time 7 day) was 138.4 meq/L. It also gave a PL ([…], time 7 day) of 113.2 mg/dL, an RALB ([…], time 7 day) of 2.8 g/dL and a TBIL ([…], time 7 day) of 0.2 mg/dL. For the same compound, the TC ([…], time 7 day) was 51.6 mg/dL, the TG ([…], time 7 day) was 115 mg/dL and the TP ([…], time 7 day) was 4.7 g/dL. It also gave a gamma-GTP ([…], time 7 day) of 1 IU/L, an A/G ([…], time 14 day) of 1.5 and an ALP ([…], time 14 day) of 611.4 IU/L. It also gave an ALT ([…], time 14 day) of 39.8 IU/L, an AST ([…], time 14 day) of 70.4 IU/L and a BUN ([…], time 14 day) of 13.2 mg/dL. It also gave a CRE ([…], time 14 day) of 0.5 mg/dL, a Ca ([…], time 14 day) of 9.9 mg/dL and a Cl ([…], time 14 day) of 104.8 meq/L. For the same compound, the DBIL ([…], time 14 day) was 0.2 mg/dL, the GLC ([…], time 14 day) was 160.6 mg/dL and the IP ([…], time 14 day) was 6.8 mg/dL. For the same compound, the K ([…], time 14 day) was 4.3 meq/L, the LDH ([…], time 14 day) was 190 IU/L and the Na ([…], time 14 day) was 141 meq/L. The PL ([…], time 14 day) was 135.4 mg/dL, the RALB ([…], time 14 day) was 2.9 g/dL and the TBIL ([…], time 14 day) was 0.3 mg/dL. For the same compound, the TC ([…], time 14 day) was 54.8 mg/dL, the TG ([…], time 14 day) was 154.4 mg/dL and the TP ([…], time 14 day) was 4.8 g/dL. It also gave a gamma-GTP ([…], time 14 day) of 1.2 IU/L, an A/G ([…], time 28 day) of 1.3 and an ALP ([…], time 28 day) of 649.6 IU/L. The ALT ([…], time 28 day) was 42.4 IU/L, the AST ([…], time 28 day) was 72.6 IU/L and the BUN ([…], time 28 day) was 14 mg/dL. It also gave a CRE ([…], time 28 day) of 0.5 mg/dL, a Ca ([…], time 28 day) of 9.8 mg/dL and a Cl ([…], time 28 day) of 104.8 meq/L. The DBIL ([…], time 28 day) was 0.3 mg/dL, the GLC ([…], time 28 day) was 162.2 mg/dL and the IP ([…], time 28 day) was 6.6 mg/dL. For the same compound, the K ([…], time 28 day) was 3.7 meq/L, the LDH ([…], time 28 day) was 169.8 IU/L and the Na ([…], time 28 day) was 140.4 meq/L. The PL ([…], time 28 day) was 145.6 mg/dL, the RALB ([…], time 28 day) was 2.7 g/dL and the TBIL ([…], time 28 day) was 0.4 mg/dL. It also gave a TC ([…], time 28 day) of 59.4 mg/dL, a TG ([…], time 28 day) of 134.8 mg/dL and a TP ([…], time 28 day) of 4.8 g/dL. For the same compound, the gamma-GTP ([…], time 28 day) was 4.8 IU/L.
